Legend:
[1] = target: T1, 3-hydroxy-3-methylglutaryl-coenzyme A synthase 1 (HMGCS1) (Homo sapiens, UniProt Q01581); assay: competitive affinity purification TMT mass spectrometry and immunoblot in HEK293T cells; format: cell-based; set-up: endogenous HMGCS1 in HEK293T cells
T1 sequence (Q01581 1-520): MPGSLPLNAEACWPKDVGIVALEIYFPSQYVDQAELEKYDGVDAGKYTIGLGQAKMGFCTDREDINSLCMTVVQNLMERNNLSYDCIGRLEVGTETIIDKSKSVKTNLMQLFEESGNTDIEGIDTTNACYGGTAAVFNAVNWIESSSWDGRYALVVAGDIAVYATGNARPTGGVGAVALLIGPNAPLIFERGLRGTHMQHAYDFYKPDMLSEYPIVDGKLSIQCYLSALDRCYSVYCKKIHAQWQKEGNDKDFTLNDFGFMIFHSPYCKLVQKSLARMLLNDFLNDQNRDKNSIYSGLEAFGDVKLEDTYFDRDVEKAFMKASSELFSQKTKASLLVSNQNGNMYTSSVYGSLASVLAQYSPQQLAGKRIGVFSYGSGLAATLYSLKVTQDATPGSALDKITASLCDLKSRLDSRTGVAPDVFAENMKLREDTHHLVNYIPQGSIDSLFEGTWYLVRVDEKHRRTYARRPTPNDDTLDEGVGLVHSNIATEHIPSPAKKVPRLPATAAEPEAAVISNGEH

[2] = target: T1, 3-hydroxy-3-methylglutaryl-coenzyme A synthase 1 (HMGCS1); assay: Glu-C MS/MS of adduct on recombinant HMGCS1; dose-dependent competition with HG-FL in gel; competitive chemoproteomics in HEK293T; format: binding; set-up: recombinant HMGCS1 (pET60b-HMGCS1-TEV-6His)

SMILES: CC(=C\C(=O)NCCOCCOCCNC(=O)CCCC[C@@H]1SC[C@@H]2NC(=O)N[C@@H]21)/C=C(\C)C[C@H](C)CCCC[C@H]1OC(=O)[C@@H]1CO [HG-biotin, Hymeglusin-biotin]
- competitive affinity purification TMT mass spectrometry and immunoblot in HEK293 [1]: An orthogonal immunoblotting assay confirmed the strong enrichment of HMGCS1 by HG-biotin in DMSO pre-treated cells

SMILES: CC(=C\C(=O)O)/C=C(\C)C[C@H](C)CCCC[C@H]1OC(=O)[C@@H]1CO [HG, Hymeglusin]
- Glu-C MS/MS of adduct on recombinant HMGCS1; dose-dependent competition with HG- [2]: Mass spectrometry analysis of recombinant HMGCS1, after incubation with HG, further confirmed the modification of C129 by HG

From PMC12514577, “Activity-based probes and chemical proteomics uncover the biological impact of targeting HMG-CoA Synthase 1 in the mevalonate pathway” (The Journal of Biological Chemistry, 2025)
